Type: physicochemical
Experimental: The stability of crystalline amlodipine free base bulk and amlodipine free base tablets was assessed by storing samples for up to 6 or 12 weeks at 25°C/60%RH, 40°C/75%RH and 50°C/20%RH. Changes were monitored using a stability-indicating HPLC method. Results were calculated by normalised peak area (npa). Degradants were identified by comparison of their relative retention times against impurity standards.

## CCOC(=O)C1=C(COCCN)NC(C)=C(C(=O)OC)C1c1ccccc1Cl (stereo not shown) [crystalline amlodipine free base, 2-[(2-aminoethoxy)]-methyl-4-(2-chlorophenyl)-3-ethoxycarbonyl-5-methoxycarbonyl-6-methyl-1,4-dihydropyridine]
  stability: stability was demonstrated

Reference: patent publication EP1287826A1, “A crystalline form of the free base of Amlodipine” (Pfizer Limited, priority 2001, dated 2003)
